Test results: the supplement of paper PMC10307832

Key:
Assay in all cases: relative viability (nuclei count vs DMSO), 5 days (fraction); higher = more cells survive
[1] = compound: C1=CC(=CC=C1NC(=S)NNC2=C(C=C(C=C2[N+](=O)[O-])C(F)(F)F)[N+](=O)[O-])F [Kobe2602] + CC(C)C[C@H](NC(=O)[C@H](Cc1ccccc1)NC(=O)c1cnccn1)B(O)O [Bortezomib] (partner 0.002 µM)
How it was run: (§1)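 Five library-drug doses in √10 steps were combined with a fixed anchor-drug dose, or a single drug was given alone, by pin tool to lung cancer cell lines in 1536-well plates the day after seeding. Nuclei were stained and counted after 5 days. Relative viability is the nuclei count in treated wells over that in vehicle wells, taken as the median of duplicate plates.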

[2] = compound: C1=CC(=CC=C1NC(=S)NNC2=C(C=C(C=C2[N+](=O)[O-])C(F)(F)F)[N+](=O)[O-])F [Kobe2602] + C[C@@H](Oc1cc(-c2cnn(C3CCNCC3)c2)cnc1N)c1c(Cl)ccc(F)c1Cl [Crizotinib] (partner 1 µM)
How it was run: as §1

[3] = compound: COc1cc2nccc(Oc3ccc(NC(=O)C4(C(=O)Nc5ccc(F)cc5)CC4)cc3)c2cc1OC [Cabozantinib] + Nc1ncn([C@H]2C[C@H](O)[C@@H](CO)O2)c(=O)n1 [Decitabine] (partner 2 µM)
How it was run: as §1

[4] = compound: O[C@@H](COc1cccc2ncccc12)CN1CCN([C@@H]2c3ccccc3[C@@H]3[C@H](c4ccccc42)C3(F)F)CC1 [Zosuquidar] + CCNC(=O)c1noc(-c2cc(C(C)C)c(O)cc2O)c1-c1ccc(CN2CCOCC2)cc1 [Luminespib] (partner 0.01 µM)
How it was run: as §1

Cell Line | relative viability ([1]; first compound 0.2 µM) | relative viability ([1]; first compound 0.6325 µM) | relative viability ([1]; first compound 2 µM) | relative viability ([1]; first compound 6.325 µM) | relative viability ([1]; first compound 20 µM) | relative viability ([2]; first compound 0.2 µM) | relative viability ([2]; first compound 0.6325 µM) | relative viability ([2]; first compound 2 µM) | relative viability ([2]; first compound 6.325 µM) | relative viability ([2]; first compound 20 µM) | relative viability ([3]; first compound 0.02 µM) | relative viability ([3]; first compound 0.06325 µM) | relative viability ([3]; first compound 0.2 µM) | relative viability ([3]; first compound 0.6325 µM) | relative viability ([3]; first compound 2 µM) | relative viability ([4]; first compound 0.01 µM) | relative viability ([4]; first compound 0.03162 µM) | relative viability ([4]; first compound 0.1 µM) | relative viability ([4]; first compound 0.3162 µM) | relative viability ([4]; first compound 1 µM)
LXF-289 | 0.968 | 1.05 | 0.955 | 0.97 | 0.988 | 0.789 | 0.826 | 0.826 | 0.792 | 0.791 | 0.353 | 0.395 | 0.392 | 0.433 | 0.377 | 0.665 | 0.762 | 0.675 | 0.711 | 0.581
BEN | 0.908 | 0.897 | 0.938 | 0.821 | 0.99 | 0.948 | 0.727 | 0.894 | 0.843 | 0.819 | 0.63 | 0.815 | 0.7 | 0.733 | 0.566 | 0.374 | 0.218 | 0.381 | 0.274 | 0.329
LCLC-97TM1 | 0.691 | 0.757 | 0.501 | 0.611 | 0.526 | 0.405 | 0.336 | 0.242 | 0.372 | 0.282 | 0.24 | 0.262 | 0.252 | 0.265 | 0.21 | 0.765 | 0.755 | 0.742 | 0.814 | 0.913
NCI-H1993 | 0.978 | 1.09 | 0.897 | 0.985 | 1.02 | 0.82 | 0.89 | 0.72 | 0.753 | 0.782 | 0.71 | 0.681 | 0.519 | 0.576 | 0.458 | 0.874 | 0.78 | 1.55 | 0.778 | 0.75
NCI-H596 | 1.08 | 1 | 1.08 | 0.987 | 0.965 | 0.723 | 1.03 | 0.944 | 1.21 | 1 | 1.06 | 1.39 | 1.07 | 1.01 | 0.98 | 1.1 | – | 0.804 | 0.983 | 0.931
LCLC-103H | 1.15 | 1.11 | 1.04 | 1.13 | 1.01 | 1.04 | 1.02 | 1.07 | 1.02 | 1.18 | 0.716 | 0.791 | 0.722 | 0.721 | 0.748 | 0.983 | 0.957 | 0.74 | 0.93 | 1
NCI-H1975 | 0.363 | 0.392 | 0.297 | 0.365 | 0.358 | 1.01 | 0.959 | 0.838 | 0.897 | 0.779 | 0.406 | 0.399 | 0.412 | 0.418 | 0.327 | 0.264 | 0.174 | 0.217 | 0.213 | 0.182
